Assay results: patent publication US6737383B1, “Herbicidal oxadiazolidines” (priority 1999, dated 2004)

What was measured:
[1] = tested on: pigweed; assay: Test B pre/postemergence pigweed; assay type: in vivo, Amaranthus retroflexus
Summary of the method: (§1)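 Response is a visual 0-to-10 score relative to untreated plants, where 0 means no effect and 10 means complete control, taken twelve to sixteen days after application. Treatments went onto soil at planting and onto foliage of 1- to 4-leaf plants, using a surfactant-containing non-phytotoxic solvent.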

[2] = tested on: rape; assay: Test B pre/postemergence rape; assay type: in vivo, Brassica napus
Summary of the method: as §1

[3] = tested on: soybean; assay: Test B pre/postemergence soybean; assay type: in vivo, Glycine max
Summary of the method: as §1

[4] = tested on: sugar beet; assay: Test B pre/postemergence sugar beet; assay type: in vivo, Beta vulgaris
Summary of the method: as §1

[5] = tested on: winter wheat; assay: Test E winter wheat; assay type: in vivo, Triticum aestivum; settings: Postemergence
Summary of the method: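 Greenhouse test: for postemergence, foliar application at 1- to 4-leaf stage; compound in non-phytotoxic solvent with surfactant. Rating is visual, relative to untreated controls, about 21 to 28 days after treatment.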

[6] = tested on: blackgrass; assay: Test E blackgrass; assay type: in vivo, Alopecurus myosuroides; settings: Preemergence
[7] = tested on: green foxtail; assay: Test E green foxtail; assay type: in vivo, Setaria viridis; settings: Preemergence
[8] = tested on: Italian ryegrass; assay: Test E Italian ryegrass; assay type: in vivo, Lolium multiflorum; settings: Preemergence
[9] = tested on: winter wheat; assay: Test E winter wheat; assay type: in vivo, Triticum aestivum; settings: Preemergence
[10] = tested on: wild oat; assay: Test E wild oat; assay type: in vivo, Avena fatua; settings: Preemergence
[11] = tested on: winter barley; assay: Test E winter barley; assay type: in vivo, Hordeum vulgare; settings: Preemergence
[12] = Postemergence, Rate 62 g/ha, scale 0 to 10, 0 is no effect, 10 is complete control
[13] = Postemergence, Rate 125 g/ha, scale of 0 to 10 where 0 is no effect and 10 is complete control
[14] = Preemergence, Rate 31 g/ha, visual rating, scale 0 to 10 (0 no effect, 10 complete control)
[15] = Preemergence, Rate 62 g/ha, scale 0 to 10 (0 no effect, 10 complete control)
[16] = Preemergence, Rate 125 g/ha, scale 0 to 10 (0 no effect, 10 complete control)
[17] = Preemergence, Rate 250 g/ha, scale of 0 to 10 where 0 is no effect and 10 is complete control
[18] = Rate 31 g/ha, Postemergence, scale 0 to 10
[19] = Rate 250 g/ha, Postemergence, scale 0 to 10, 0 is no effect, 10 is complete control
[20] = Rate 125 g/ha, 0 to 100 scale (0 no effect, 100 complete control)
[21] = Rate 500 g/ha, 0 to 100 scale where 0 is no effect and 100 is complete control
[22] = Postemergence, Rate 250 g/ha, scale of 0 to 10, 0 is no effect, 10 is complete control
[23] = Preemergence, Rate 62 g/ha, scale of 0 to 10 where 0 is no effect and 10 is complete control
[24] = Preemergence, Rate 125 g/ha, scale of 0 to 10 where 0 is no effect and 10 is complete control
[25] = Preemergence, Rate 250 g/ha, scale 0 to 10 (0 no effect, 10 complete control)
[26] = Preemergence, Rate 500 g/ha, scale of 0 to 10 where 0 is no effect and 10 is complete control
[27] = Rate 500 g/ha, Postemergence, scale 0 to 10, 0 is no effect, 10 is complete control

CC(C)N(C(=O)n1oc(=O)n(-c2cnn(C)c2)c1=O)c1ccc(F)cc1 [Compound 98]
20: Plant response rating, Blackgrass ([6]; Rate 250 g/ha, 0 to 100 scale) | Plant response rating, Barley (winter) [11, 20]
0: Redroot pigweed plant response rating [1, 12] | Redroot pigweed plant response rating [1, 13] | Redroot pigweed plant response rating [1, 14] | Redroot pigweed plant response rating [1, 18] | Plant response rating, Redroot pigweed [1, 19] | Rape plant response rating [2, 12] | Rape plant response rating [2, 13] | Rape plant response rating ([2]; Postemergence, Rate 250 g/ha, scale 0 to 10, 0 no effect, 10 complete control) | Rape plant response rating [2, 14] | Rape plant response rating [2, 15] | Plant response rating, Rape [2, 16] | Plant response rating, Rape [2, 17] | Rape plant response rating [2, 18] | Soybean plant response rating [3, 14] | Soybean plant response rating [3, 15] | Plant response rating, Soybean [3, 16] | Plant response rating, Soybean [3, 17] | Sugarbeets plant response rating [4, 12] | Sugarbeets plant response rating [4, 13] | Sugarbeets plant response rating [4, 14] | Sugarbeets plant response rating [4, 15] | Sugarbeets plant response rating (0 to 10 scale) ([4]; Preemergence, Rate 125 g/ha, 0 is no effect, 10 is complete control) | Plant response rating, Sugarbeets [4, 19]
60: Plant response rating, Green foxtail [7, 20] | Plant response rating, Green foxtail ([7]; Rate 250 g/ha, 0 to 100 scale) | Plant response rating, I. Ryegrass [8, 21]
65: Plant response rating, Green foxtail [7, 21]
3: Plant response rating, Sugarbeets [4, 17]
40: Plant response rating, Wheat (winter) ([9]; Rate 250 g/ha, 0 to 100 scale) | Plant response rating, Wheat (winter) [9, 21]
10: Plant response rating, Barley (winter) ([11]; Rate 250 g/ha, 0 to 100 scale)
30: Plant response rating, Wheat (winter) ([5]; Rate 125 g/ha, 0 to 100 scale) | Plant response rating, Blackgrass [6, 20] | Plant response rating, Wheat (winter) [9, 20] | Plant response rating, Barley (winter) [11, 21]
4: Redroot pigweed plant response rating [1, 15] | Plant response rating, Redroot pigweed [1, 16]
50: Plant response rating, Wheat (winter) ([5]; Rate 250 g/ha, 0 to 100 scale (0 no effect, 100 complete control)) | Plant response rating, I. Ryegrass [8, 20] | Plant response rating, I. Ryegrass ([8]; Rate 250 g/ha, 0 to 100 scale) | Plant response rating, Wild oat [10, 20] | Plant response rating, Wild oat [10, 21]
1: Soybean plant response rating [3, 12] | Soybean plant response rating [3, 13] | Plant response rating, Soybean [3, 19]
55: Plant response rating, Wheat (winter) ([5]; Rate 500 g/ha, 0 to 100 scale, 0 no effect, 100 complete control) | Plant response rating, Blackgrass [6, 21]
5: Plant response rating, Redroot pigweed [1, 17]

CC(C)N(C(=O)n1oc(=O)n(CC(=O)C2CCC2)c1=O)c1ccc(Cl)cc1 [Compound 643]
6: Plant response rating, Rape [2, 26]
1: Plant response rating, Soybean [3, 12] | Soybean plant response rating [3, 13] | Soybean plant response rating [3, 22]
0: Plant response rating, Redroot pigweed [1, 12] | Redroot pigweed plant response rating [1, 13] | Redroot pigweed plant response rating [1, 22] | Redroot pigweed plant response rating [1, 23] | Redroot pigweed plant response rating [1, 24] | Plant response rating, Redroot pigweed [1, 25] | Rape plant response rating [2, 13] | Rape plant response rating [2, 22] | Plant response rating, Rape ([2]; Postemergence, Rate 500 g/ha, scale of 0 to 10 where 0 is no effect and 10 is complete control) | Rape plant response rating [2, 23] | Rape plant response rating [2, 24] | Plant response rating, Rape [2, 25] | Soybean plant response rating [3, 23] | Soybean plant response rating [3, 24] | Plant response rating, Soybean [3, 25] | Plant response rating, Soybean [3, 26] | Plant response rating, Sugarbeets [4, 12] | Sugarbeets plant response rating [4, 13] | Sugarbeets plant response rating [4, 22] | Sugarbeets plant response rating [4, 23] | Sugarbeets plant response rating [4, 24] | Plant response rating, Sugarbeets [4, 25] | Plant response rating, Sugarbeets [4, 26]
5: Plant response rating, Redroot pigweed [1, 26]

CC[C@@H](C)n1c(=O)on(C(=O)N(c2ccc(Cl)cc2)C(C)C)c1=O [Compound 665]
4: Rape plant response rating [2, 23] | Rape plant response rating [2, 27] | Sugarbeets plant response rating [4, 27]
8: Redroot pigweed plant response rating [1, 24] | Plant response rating, Rape [2, 25]
7: Redroot pigweed plant response rating [1, 23] | Redroot pigweed plant response rating [1, 27] | Plant response rating, Sugarbeets [4, 26]
10: Plant response rating, Redroot pigweed [1, 26]
0: Plant response rating, Rape [2, 12] | Rape plant response rating [2, 13] | Soybean plant response rating [3, 23] | Soybean plant response rating [3, 24] | Plant response rating, Soybean [3, 25] | Plant response rating, Sugarbeets [4, 12] | Sugarbeets plant response rating [4, 13] | Sugarbeets plant response rating [4, 23]
3: Plant response rating, Redroot pigweed [1, 12] | Redroot pigweed plant response rating [1, 13] | Sugarbeets plant response rating [4, 24]
6: Rape plant response rating [2, 24] | Plant response rating, Sugarbeets [4, 25]
9: Plant response rating, Redroot pigweed [1, 25] | Plant response rating, Rape [2, 26]
2: Plant response rating, Soybean [3, 12] | Soybean plant response rating [3, 13] | Plant response rating, Soybean [3, 26]

CC[C@@H](C)n1c(=O)on(C(=O)N(c2ccc(F)cc2F)C(C)C)c1=O [Compound 667]
10: Redroot pigweed plant response rating [1, 23] | Redroot pigweed plant response rating [1, 24] | Plant response rating, Redroot pigweed [1, 25] | Plant response rating, Redroot pigweed [1, 26] | Plant response rating, Rape [2, 25] | Plant response rating, Rape [2, 26] | Plant response rating, Sugarbeets [4, 26]
0: Plant response rating, Rape [2, 12] | Soybean plant response rating [3, 23] | Plant response rating, Sugarbeets [4, 12] | Sugarbeets plant response rating [4, 13]
4: Rape plant response rating [2, 13]
3: Soybean plant response rating [3, 13] | Soybean plant response rating [3, 24] | Sugarbeets plant response rating [4, 27]
2: Plant response rating, Redroot pigweed [1, 12] | Plant response rating, Soybean [3, 12]
6: Rape plant response rating [2, 27] | Plant response rating, Soybean [3, 25]
5: Redroot pigweed plant response rating [1, 13] | Sugarbeets plant response rating [4, 23]
7: Redroot pigweed plant response rating [1, 27] | Rape plant response rating [2, 23] | Plant response rating, Soybean [3, 26] | Sugarbeets plant response rating [4, 24]
8: Rape plant response rating [2, 24] | Plant response rating, Sugarbeets [4, 25]
